#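 96-well plates; 48 h exposure; 5 concentrations. Endpoints by linear interpolation between flanking doses. Not reached: highest tested concentration assigned. GI50 = concentration required for 50% inhibition of growth. TGI: total growth inhibition.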
# Columns and labels:
# Test in all cases: NCI tumour cell line growth inhibition, 48 h
# HOP-92 NSCLC = system: HOP-92 NSCLC
# HL-60(TB) leukemia = system: HL-60(TB) leukemia
# COLO 205 colon = system: COLO 205 colon
# SF-539 CNS = system: SF-539 CNS
# HOP-62 NSCLC = system: HOP-62 NSCLC
# RPMI-8226 leukemia = system: RPMI-8226 leukemia
# IGROV1 ovarian = system: IGROV1 ovarian
# MDA-MB-231 breast = system: MDA-MB-231 breast
# RXF 393 renal = system: RXF 393 renal
# NCI-H522 lung = system: NCI-H522 lung
# KM12 colon = system: KM12 colon
# SK-MEL-2 melanoma = system: SK-MEL-2 melanoma
# OVCAR-3 ovarian = system: OVCAR-3 ovarian
# T-47D breast = system: T-47D breast
# SK-OV-3 ovarian = system: SK-OV-3 ovarian
# HCT-116 colon = system: HCT-116 colon
# LOX IMVI melanoma = system: LOX IMVI melanoma
# NCI-H226 lung = system: NCI-H226 lung
# DU-145 prostate = system: DU-145 prostate
# OVCAR-8 ovarian = system: OVCAR-8 ovarian
# UO-31 renal = system: UO-31 renal
# OVCAR-5 ovarian = system: OVCAR-5 ovarian
# PC-3 prostate = system: PC-3 prostate
# CCRF-CEM leukemia = system: CCRF-CEM leukemia
# NCI/ADR-RES ovarian = system: NCI/ADR-RES ovarian
# EKVX NSCLC = system: EKVX NSCLC
# K-562 leukemia = system: K-562 leukemia
# A549 NSCLC = system: A549 NSCLC
# TK-10 renal = system: TK-10 renal
# HCC-2998 colon = system: HCC-2998 colon
# MDA-MB-435 = system: MDA-MB-435
# 786-0 renal = system: 786-0 renal
# M14 melanoma = system: M14 melanoma
# SW-620 colon = system: SW-620 colon
# SF-268 CNS = system: SF-268 CNS
# SF-295 CNS = system: SF-295 CNS
# OVCAR-4 ovarian = system: OVCAR-4 ovarian
# A498 renal = system: A498 renal
# SN12C renal = system: SN12C renal
# MOLT-4 leukemia = system: MOLT-4 leukemia
# MCF7 breast = system: MCF7 breast
# UACC-257 melanoma = system: UACC-257 melanoma
# SK-MEL-28 melanoma = system: SK-MEL-28 melanoma
# HCT-15 colon = system: HCT-15 colon
# SNB-75 CNS = system: SNB-75 CNS
# SK-MEL-5 melanoma = system: SK-MEL-5 melanoma
# SNB-19 CNS = system: SNB-19 CNS
# NCI-H460 lung = system: NCI-H460 lung
# BT-549 breast = system: BT-549 breast
# HT29 colon = system: HT29 colon
# NCI-H23 lung = system: NCI-H23 lung
# UACC-62 melanoma = system: UACC-62 melanoma
# HS 578T breast = system: HS 578T breast
# CAKI-1 renal = system: CAKI-1 renal
# ACHN renal = system: ACHN renal
# U251 CNS = system: U251 CNS
# MALME-3M melanoma = system: MALME-3M melanoma
smiles,measurement,setting,value
CC1=C(C)C(=O)C(Nc2cccc(C(F)(F)F)c2)=C(Cl)C1=O,GI50,HOP-92 NSCLC,1.5 µM
same,TGI,HOP-92 NSCLC,3.04 µM
same,GI50,HL-60(TB) leukemia,2.34 µM
same,TGI,HL-60(TB) leukemia,6.54 µM
same,GI50,COLO 205 colon,13 µM
same,TGI,COLO 205 colon,29.3 µM
same,GI50,SF-539 CNS,2.4 µM
same,TGI,SF-539 CNS,6.61 µM
same,GI50,HOP-62 NSCLC,11.5 µM
same,TGI,HOP-62 NSCLC,27.6 µM
same,GI50,RPMI-8226 leukemia,1.32 µM
same,TGI,RPMI-8226 leukemia,7.32 µM
same,GI50,IGROV1 ovarian,1.42 µM
same,TGI,IGROV1 ovarian,3.19 µM
same,GI50,MDA-MB-231 breast,1.59 µM
same,TGI,MDA-MB-231 breast,3.28 µM
same,GI50,RXF 393 renal,1.49 µM
same,TGI,RXF 393 renal,2.85 µM
same,GI50,NCI-H522 lung,2.24 µM
same,TGI,NCI-H522 lung,5.66 µM
same,GI50,KM12 colon,3.58 µM
same,TGI,KM12 colon,25.7 µM
same,GI50,SK-MEL-2 melanoma,8.26 µM
same,TGI,SK-MEL-2 melanoma,21.7 µM
same,GI50,OVCAR-3 ovarian,2.31 µM
same,TGI,OVCAR-3 ovarian,5.58 µM
same,GI50,T-47D breast,1.17 µM
same,TGI,T-47D breast,3.6 µM
same,GI50,SK-OV-3 ovarian,13 µM
same,TGI,SK-OV-3 ovarian,50.7 µM
same,GI50,HCT-116 colon,1.93 µM
same,TGI,HCT-116 colon,3.99 µM
same,GI50,LOX IMVI melanoma,1.69 µM
same,TGI,LOX IMVI melanoma,3.32 µM
same,GI50,NCI-H226 lung,10.8 µM
same,TGI,NCI-H226 lung,34.8 µM
same,GI50,DU-145 prostate,15.6 µM
same,TGI,DU-145 prostate,34.8 µM
same,GI50,OVCAR-8 ovarian,2.68 µM
same,TGI,OVCAR-8 ovarian,6.89 µM
same,GI50,UO-31 renal,1.46 µM
same,TGI,UO-31 renal,4.18 µM
same,GI50,OVCAR-5 ovarian,1.98 µM
same,TGI,OVCAR-5 ovarian,4.13 µM
same,GI50,PC-3 prostate,2.67 µM
same,TGI,PC-3 prostate,12.8 µM
same,GI50,CCRF-CEM leukemia,1.93 µM
same,TGI,CCRF-CEM leukemia,> 100 µM
same,GI50,NCI/ADR-RES ovarian,3.16 µM
same,TGI,NCI/ADR-RES ovarian,42.3 µM
same,GI50,EKVX NSCLC,1.49 µM
same,TGI,EKVX NSCLC,3.73 µM
same,GI50,K-562 leukemia,2.4 µM
same,TGI,K-562 leukemia,> 100 µM
same,GI50,A549 NSCLC,13.3 µM
same,TGI,A549 NSCLC,> 100 µM
same,GI50,TK-10 renal,19 µM
same,TGI,TK-10 renal,37 µM
same,GI50,HCC-2998 colon,5.88 µM
same,TGI,HCC-2998 colon,18.4 µM
same,GI50,MDA-MB-435,5.98 µM
same,TGI,MDA-MB-435,19.5 µM
same,GI50,786-0 renal,10.6 µM
same,TGI,786-0 renal,24.3 µM
same,GI50,M14 melanoma,9.96 µM
same,TGI,M14 melanoma,32.7 µM
same,GI50,SW-620 colon,2.09 µM
same,TGI,SW-620 colon,4.73 µM
same,GI50,SF-268 CNS,4.99 µM
same,TGI,SF-268 CNS,28.6 µM
same,GI50,SF-295 CNS,6.55 µM
same,TGI,SF-295 CNS,24 µM
same,GI50,OVCAR-4 ovarian,1.58 µM
same,TGI,OVCAR-4 ovarian,2.97 µM
same,GI50,A498 renal,13.7 µM
same,TGI,A498 renal,45.2 µM
same,GI50,SN12C renal,4.25 µM
same,TGI,SN12C renal,23.4 µM
same,GI50,MOLT-4 leukemia,2.22 µM
same,TGI,MOLT-4 leukemia,> 100 µM
same,GI50,MCF7 breast,1.71 µM
same,TGI,MCF7 breast,3.79 µM
same,GI50,UACC-257 melanoma,2.61 µM
same,TGI,UACC-257 melanoma,6.72 µM
same,GI50,SK-MEL-28 melanoma,3.36 µM
same,TGI,SK-MEL-28 melanoma,10.8 µM
same,GI50,HCT-15 colon,2.2 µM
same,TGI,HCT-15 colon,5.05 µM
same,GI50,SNB-75 CNS,1.16 µM
same,TGI,SNB-75 CNS,13.6 µM
same,GI50,SK-MEL-5 melanoma,4.14 µM
same,TGI,SK-MEL-5 melanoma,15.7 µM
same,GI50,SNB-19 CNS,5.83 µM
same,TGI,SNB-19 CNS,23.4 µM
same,GI50,NCI-H460 lung,11.6 µM
same,TGI,NCI-H460 lung,32.2 µM
same,GI50,BT-549 breast,8.56 µM
same,TGI,BT-549 breast,22.2 µM
same,GI50,HT29 colon,7.29 µM
same,TGI,HT29 colon,51.8 µM
same,GI50,NCI-H23 lung,6.87 µM
same,TGI,NCI-H23 lung,24 µM
same,GI50,UACC-62 melanoma,3.46 µM
same,TGI,UACC-62 melanoma,16.1 µM
same,GI50,HS 578T breast,6 µM
same,TGI,HS 578T breast,64.4 µM
same,GI50,CAKI-1 renal,1.94 µM
same,TGI,CAKI-1 renal,9.11 µM
same,GI50,ACHN renal,1.73 µM
same,TGI,ACHN renal,3.18 µM
same,GI50,U251 CNS,4.45 µM
same,TGI,U251 CNS,17.9 µM
same,GI50,MALME-3M melanoma,1.98 µM
same,TGI,MALME-3M melanoma,6.04 µM
